Results on 13 molecules are retold here after US11897880B2, “7,8-dihydrobenzo[e]pyrido[3,4-c]azocine-2,5(3H,6H)-dione derivatives useful as a factor XIa inhibitors” (Janssen Pharmaceutica NV, priority 2021, dated 2024).

Holding throughout (format): biochemical
Assay [1] addresses T1, Factor XIa (Homo sapiens, UniProt P03951). In words: Kinetic parameters of the peptide substrate 5Fam-KLTRAETV-K5Tamra with FXIa (substrate inhibition model). An excerpt: A fluorescence intensity (FLINT) based assay was used to monitor inhibition of Factor XIa. The peptide substrate, 5Fam-KLTRAETV-K5Tamra (purchased from New England Peptide) was chosen based on the FXI sequence. Conversion of zymogen FXI to its activated form, FXIa, occurs by proteolytic cleavage by […] at two sites, Arg146 and Arg180. The custom peptide used in this assay was based on the Arg146 cleavage site of FXI. The peptide substrate was designed with a fluorophore-quencher pair, where the fluorescence is quenched until FXIa cleaves the 8-mer peptide after the Arg residue.

The target of assay [2] is T2, human plasma kallikrein (Homo sapiens, UniProt P03952). In words: Kallikrein inhibition assay utilizing a quenched AMC peptide substrate (FLINT). Conditions: 30 min preincubation, 50 μM Z-Gly-Pro-Arg-AMC, 2 nM kallikrein. The method in brief:
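Human plasma kallikrein (2 nM final) was preincubated 30 min at room temperature with compound (11-point 3-fold dilution, top 1 μM, 2% DMSO) in pH 7.5 Tris buffer with CaCl2, BSA and CHAPS. Z-Gly-Pro-Arg-AMC (50 μM final) fluorescence was read at 340/440 nm every 5 min for 30 min. IC50 came from a 4-parameter logistic fit.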

Assay [3] has as its target T1, Factor XIa. In words: Factor XIa inhibition assay utilizing a fluorophore-quencher pair peptide substrate (FLINT). Conditions: for pIC50: 30 min preincubation, 5Fam-KLTRAETV-K5Tamra substrate 15 μM final, kinetic reads; for pIC50 / IC50: read-out: FXIa IC50; for pKi / Ki: read-out: FXIa Ki; for Ki / IC50: cells that print μM themselves in the nM column; for IC50: same assay conditions. The method in brief:
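Enzyme preincubated 30 min at room temperature with compound (11-point 3-fold dilution, top 100 nM, 2% DMSO), then 15 μM 5Fam-KLTRAETV-K5Tamra substrate added. Buffer: 50 mM Tris pH 7.5, 100 mM NaCl, 5 mM CaCl2, 0.1 mg/mL BSA, 0.03% CHAPS. Fluorescence (485/520 nm) read kinetically over 30 min; IC50 from 4-parameter logistic fit.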

Assay [4] has as its target T2, human plasma kallikrein. In words: Kinetic parameters of the substrate Z-Gly-Pro-Arg-AMC with kallikrein (Michaelis-Menten fit). An excerpt:
A fluorescence intensity (FLINT) based assay was used to monitor inhibition of human plasma kallikrein. The peptide substrate, Z-Gly-Pro-Arg-AMC (Purchased from Bachem; Catalog #1-1150) was chosen based on its relatively low KM for kallikrein which enables running the assay at lower substrate concentrations to control background fluorescence.

pIC50, pKi: −log10 of the molar value. Where two headings read alike, the source gives them in different places. Peptide text beside a SMILES is read from it. * marks the point of attachment. 5FAM = O=C1OC2(c3ccc(O)cc3Oc3cc(O)ccc32)c2ccc(C(=O)*)cc21; AMC = Cc1cc(=O)oc2cc(N*)ccc12; Cbz = O=C(OCc1ccccc1)*

T1 sequence (P03951 388-625 limits assumed): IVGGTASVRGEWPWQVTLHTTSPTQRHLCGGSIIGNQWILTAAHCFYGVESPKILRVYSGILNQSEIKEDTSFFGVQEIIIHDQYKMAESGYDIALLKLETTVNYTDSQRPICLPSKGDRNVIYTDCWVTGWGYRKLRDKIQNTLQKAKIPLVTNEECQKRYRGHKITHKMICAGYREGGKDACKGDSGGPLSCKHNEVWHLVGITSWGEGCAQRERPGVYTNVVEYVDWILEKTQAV
T1 sequence (P03951 19-387 partner limits assumed): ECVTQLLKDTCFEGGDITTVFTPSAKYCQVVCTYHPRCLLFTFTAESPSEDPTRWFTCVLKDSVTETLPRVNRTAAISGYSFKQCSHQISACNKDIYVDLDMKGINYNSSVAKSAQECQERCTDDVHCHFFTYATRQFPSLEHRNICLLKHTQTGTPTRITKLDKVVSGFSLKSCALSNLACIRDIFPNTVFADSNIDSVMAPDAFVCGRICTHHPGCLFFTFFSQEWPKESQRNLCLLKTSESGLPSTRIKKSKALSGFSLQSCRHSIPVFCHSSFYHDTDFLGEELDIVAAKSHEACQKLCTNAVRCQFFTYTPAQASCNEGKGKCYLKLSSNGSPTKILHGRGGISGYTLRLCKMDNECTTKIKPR
T2 sequence (P03952 391-638 limits assumed): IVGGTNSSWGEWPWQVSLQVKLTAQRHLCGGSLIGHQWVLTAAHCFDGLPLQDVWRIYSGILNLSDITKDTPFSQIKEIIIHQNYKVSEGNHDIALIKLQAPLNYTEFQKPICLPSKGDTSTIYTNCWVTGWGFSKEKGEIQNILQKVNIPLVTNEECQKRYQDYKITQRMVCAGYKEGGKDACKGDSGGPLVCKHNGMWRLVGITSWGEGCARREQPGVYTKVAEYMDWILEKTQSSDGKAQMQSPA
T2 sequence (P03952 20-390 partner limits assumed): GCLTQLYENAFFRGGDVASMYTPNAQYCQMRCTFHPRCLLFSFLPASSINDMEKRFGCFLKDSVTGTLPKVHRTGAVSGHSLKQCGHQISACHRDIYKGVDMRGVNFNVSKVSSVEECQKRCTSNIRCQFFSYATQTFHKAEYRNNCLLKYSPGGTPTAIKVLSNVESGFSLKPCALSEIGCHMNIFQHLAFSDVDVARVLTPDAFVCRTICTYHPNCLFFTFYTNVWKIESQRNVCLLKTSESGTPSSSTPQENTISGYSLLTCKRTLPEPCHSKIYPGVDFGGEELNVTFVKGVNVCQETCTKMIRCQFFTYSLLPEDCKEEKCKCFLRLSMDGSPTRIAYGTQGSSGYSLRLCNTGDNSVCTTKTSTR

For the molecule “5Fam-KLTRAETV-K5Tamra (5FAM-KLTRAETV-{K(5-TAMRA)}) [fluorophore-quencher pair peptide substrate based on the Arg146 cleavage site of FXI, purchased from New England Peptide]”, in assay [1] (substrate inhibition constant), the pKi was 4.21. In assay [1] (substrate with FXIa), the Michaelis constant (Km) came to 12.4 µM and the turnover number (kcat) is 0.86 s⁻¹.
Take `Nc1ccc(-c2cnc([C@H]3CCc4c5c(cc(=O)n43)-c3c(ccc(Cl)c3F)CCNC5=O)[nH]2)c(Cl)n1` (stereo in doubt) [Compound 48, (R*)-12-(5-(6-amino-2-chloropyridin-3-yl)-1H-imidazol-2-yl)-7-chloro-8-fluoro-3,4,13,14-tetrahydrobenzo[5,6]azocino[4,3-g]indolizine-1,10(2H,12H)-dione]: the pIC50 in assay [2] is 6.68. For the same molecule, in assay [3], the pIC50 is 8.64 and the pKi was 8.92.
On to `Nc1ccc(-c2cnc([C@@H]3CCc4c5c(cc(=O)n43)-c3c(ccc(Cl)c3F)CCNC5=O)[nH]2)c(Cl)n1` (stereo in doubt) [Compound 49, (S*)-12-(5-(6-amino-2-chloropyridin-3-yl)-1H-imidazol-2-yl)-7-chloro-8-fluoro-3,4,13,14-tetrahydrobenzo[5,6]azocino[4,3-g]indolizine-1,10(2H,12H)-dione], for which the pIC50 in assay [2] is under 5.00. Also, in assay [3], the Ki amounted to 1.29 µM and the half-inhibitory concentration (IC50) was determined as 2.59 µM.
Turning to `Cn1cncc1-c1cnc([C@@H]2CCc3c4c(cc(=O)n32)-c2c(ccc(Cl)c2F)CC2(CC2)NC4=O)[nH]1` (stereo in doubt) [Compound 50, (S*)-7-chloro-8-fluoro-12-(3′-methyl-3H,3′H-[4,4′-biimidazol]-2-yl)-13,14-dihydro-2H-spiro[benzo[5,6]azocino[4,3-g]indolizine-3,1′-cyclopropane]-1,10(4H,12H)-dione], the negative logarithm of the IC50 (pIC50) in assay [2] is under 4.70; in assay [3], 6.52. The pKi in assay [3] is 6.82.
For the molecule `Cn1cncc1-c1cnc([C@H]2CCc3c4c(cc(=O)n32)-c2c(ccc(Cl)c2F)CC2(CC2)NC4=O)[nH]1` (stereo in doubt) [Compound 51, (R*)-7-chloro-8-fluoro-12-(3′-methyl-3H,3H′-[4,4′-biimidazol]-2-yl)-13,14-dihydro-2H-spiro[benzo[5,6]azocino[4,3-g]indolizine-3,1′-cyclopropane]-1,10(4H,12H)-dione], in assay [2], the negative-log IC50 (pIC50) was under 5.00. For the same molecule, in assay [3], the Ki was over 5 µM and the 50% inhibitory concentration (IC50) was over 10 µM.
With `Nc1ccc(-c2cnc([C@H]3CCc4c5c(cc(=O)n43)-c3c(ccc(Cl)c3F)CC3(CC3)NC5=O)[nH]2)c(Cl)n1` (stereo in doubt) [Compound 53, (R*)-12-(5-(6-amino-2-chloropyridin-3-yl)-1H-imidazol-2-yl)-7-chloro-8-fluoro-13,14-dihydro-2H-spiro[benzo[5,6]azocino[4,3-g]indolizine-3,1′-cyclopropane]-1,10(4H,12H)-dione], in assay [2], the pIC50 was under 5.00. Also, in assay [3], the pIC50 is 7.02 and the negative-log Ki (pKi) was 7.32.
`Nc1ccc(-c2cnc([C@H]3CCc4c5c(cc(=O)n43)-c3c(ccc(Cl)c3F)CC3(CC3)NC5=O)[nH]2)c(F)n1` (stereo in doubt) [Compound 54, (R*)-12-(5-(6-amino-2-fluoropyridin-3-yl)-1H-imidazol-2-yl)-7-chloro-8-fluoro-13,14-dihydro-2H-spiro[benzo[5,6]azocino[4,3-g]indolizine-3,1′-cyclopropane]-1,10(4H,12H)-dione] showed a pIC50 in assay [2] of under 5.00. Moreover, in assay [3], the pIC50 was 6.65 and the negative-log Ki (pKi) is 6.95.
In the case of `Nc1ccc(-c2[nH]c(C3CCc4c5c(cc(=O)n43)-c3cc(Cl)ccc3CC3(CC3)NC5=O)nc2F)c(F)n1` (stereo not shown) [Compound 1, 12-(5-(6-amino-2-fluoropyridin-3-yl)-4-fluoro-1H-imidazol-2-yl)-7-chloro-13,14-dihydro-2H-spiro[benzo[5,6]azocino[4,3-g]indolizine-3,1′-cyclopropane]-1,10(4H,12H)-dione], the pIC50 in assay [2] was 6.27. In assay [3], the negative-log IC50 (pIC50) is 8.82 and the pKi is 9.10.
`Nc1ccc(-c2cnc(C3CCc4c5c(cc(=O)n43)-c3cc(Cl)ccc3CC3(CC3)NC5=O)[nH]2)c(F)n1` (stereo not shown) [Compound 2, 12-(5-(6-amino-2-fluoropyridin-3-yl)-1H-imidazol-2-yl)-7-chloro-13,14-dihydro-2H-spiro[benzo[5,6]azocino[4,3-g]indolizine-3,1′-cyclopropane]-1,10(4H,12H)-dione]: the negative-log IC50 (pIC50) in assay [2] was 6.33; in assay [3] it was 8.52. Also, the negative logarithm of the Ki (pKi) in assay [3] was 8.82.
The corresponding values for `O=C1NC2(CC2)Cc2ccc(Cl)c(F)c2-c2cc(=O)n3c(c21)CCC3c1ncc(-c2ccnc(CO)c2F)[nH]1` (stereo not shown) [Compound 3, 7-chloro-8-fluoro-12-(5-(3-fluoro-2-(hydroxymethyl)pyridin-4-yl)-1H-imidazol-2-yl)-13,14-dihydro-2H-spiro[benzo[5,6]azocino[4,3-g]indolizine-3,1′-cyclopropane]-1,10(4H,12H)-dione] are 6.10, 7.82 and 8.12.
The corresponding values for `Nc1ccc(-c2cnc([C@@H]3CCc4c5c(cc(=O)n43)-c3c(ccc(Cl)c3F)CC3(CC3)NC5=O)[nH]2)c(Cl)n1` [Compound 52, (S)-12-(5-(6-amino-2-chloropyridin-3-yl)-1H-imidazol-2-yl)-7-chloro-8-fluoro-13,14-dihydro-2H-spiro[benzo[5,6]azocino[4,3-g]indolizine-3,1′-cyclopropane]-1,10(4H,12H)-dione] are 7.15, 9.70 and 10.00.
Regarding `COC(=O)Nc1ccc(-c2cnc([C@H](CC3CC3)n3cc4c(cc3=O)-c3c(ccc(Cl)c3F)CC3(CC3)NC4=O)[nH]2)cc1` [Compound 61, Methyl (S)-(4-(2-(1-(11-chloro-12-fluoro-2,5-dioxo-2,5,6,8-tetrahydro-3H-spiro[benzo[e]pyrido[3,4-c]azocine-7,1′-cyclopropan]-3-yl)-2-cyclopropylethyl)-1H-imidazol-5-yl)phenyl)carbamate], in assay [2], the pIC50 is 6.92. Besides, in assay [3], the pIC50 is 9.00 and the pKi is 9.30.
As to `Cc1cc(=O)oc2cc(NC(=O)[C@H](CCCNC(=N)N)NC(=O)[C@@H]3CCCN3C(=O)CNC(=O)OCc3ccccc3)ccc12` [Z-Gly-Pro-Arg-AMC] (Cbz-Gly-Pro-Arg-{AMC}), the kcat in assay [4] worked out at 0.76 s⁻¹.
